Experimental data from US3983125A, “Thieno-pyridine derivatives, process for their preparation and their applications” (Parcor, priority 1974, dated 1976).

Key:
[1] = Mechanical stimulation method according to Haffner; format: in vivo; settings: mouse, 100 mg/kg orally
Description: b. Mechanical stimulation method according to Haffner (Deutsch. Wisch., 1959, 55, 731-733)
This method comprises placing a forcipressure forceps at the base of the tail of a mouse and noting the number of self-inflicted bites due to the animal's efforts to remove the forceps. The decrease of the number of bites prior to and after oral administration of the test derivative, at a dosage of 100 mg/kg, provides a measure of the antalgic activity of the derivatives of this invention.

[2] = Acute toxicity, LD50 intravenous route, Miller and Tainter method; settings: mouse, in vivo, mice, per kg body weight
[3] = Acetic acid method (writhing), according to Koster, Anderson and de Beer; format: in vivo; settings: mice, 100 mg/kg orally, 30 minutes prior to acetic acid i.p.; writhing within following 30 minutes
Text: a. Acetic acid method, according to Koster, Anderson and de Beer (Fed. Proced., 18, 1959, 412, 1, 626).
Intraperitoneal injection of a dilute acetic acid solution produces, in mice, characteristic repeated writhing movements, under the influence of pain.

[4] = Carrageenin-induced localized edema method; format: in vivo; settings: rat, 100 mg/kg orally per administration; for Percent anti-inflammatory activity after 1 hour: 1 hour after carrageenin; for Percent anti-inflammatory activity after 2 hours: 2 hours after carrageenin; for Percent anti-inflammatory activity after 5 hours: 5 hours after carrageenin
Description: a. Carrageenin-induced localized edema method
A 1% carrageenin solution (0.1 ml) is injected in the metatarsal flexor muscles of the right posterior limb of a rat at time 0 (zero). The animals of the treated lot are additionally given orally 100 mg/kg of the respective test derivatives, one hour prior to and then simultaneously with the injection of the phlogogenic agent, and then one hour and 2.5 hours thereafter. The determinations effected by means of a ROCH micrometer at times 0, 1 hour, 2 hours, 3 hours and 5 hours after carrageenin administration, provide a measure of the percent anti-inflammatory activity, as a function of time.

[5] = Ovalbumin-induced systemic edema method; format: in vivo; settings: rat, 100 mg/kg orally, one hour prior to and simultaneously with ovalbumin; for Percent decrease (edematous reaction) after two hours: 2 hours; for Percent decrease (edematous reaction) after three hours: 3 hours
Description: b. Ovalbumin-induced systemic edema method
Rats are administered a simultaneous intraperitoneal injection of 1 ml ovalbumin and 0.5 ml of a 1% aqueous Evans Blue solution. On the other hand, the animals of the treated lot are administered orally 100 mg/kg of the test derivative, one hour prior to and simultaneously with the ovalbumin administration. The determinations are effected after 2 hours and after 3 hours. Thus are determined the average intensity of the edema and the percent decrease of the edematous reaction with respect to the controls.

[6] = Acute toxicity, LD50 oral route; settings: mouse, in vivo, per kg body weight
Description: By the oral route, the LD50 /24 hrs/kg body weight is in excess of 300 mg with derivatives n°1 and n°2.

Row | Compound | Average percent antalgic activity after 30 min. [1] [%] | Average percent antalgic activity after 1 hr [1] [%] | Average percent antalgic activity after 2 hrs [1] [%] | Average percent antalgic activity after 3 hrs [1] [%] | LD50 at 24 h [2] [mg/kg] | Percent antalgic activity [3] [%] | Percent anti-inflammatory activity after 1 hour [4] [%] | Percent anti-inflammatory activity after 2 hours [4] [%] | Percent anti-inflammatory activity after 5 hours [4] [%] | Percent decrease (edematous reaction) after two hours [5] [%] | Percent decrease (edematous reaction) after three hours [5] [%] | LD50 at 24 h [6] [mg/kg]
1 | CCC1NCC(O)c2ccsc21 (centres unmarked) [Derivative 4, 7-ethyl-4-hydroxy-4,5,6,7-tetrahydro-thieno[2,3-c]pyridine] | 74 | 65 | 60 | 52 | 285 | 61 | 43 | 51 | 59 | 54 | 62 | 
2 | OC1CNCc2ccsc21 (centres unmarked) [Derivative 1, 7-hydroxy-4,5,6,7-tetrahydro-thieno[3,2-c]pyridine] | 72 | 68 | 62 | 55 | 75 | 63 | 41 | 48 | 53 | 54 | 58 | > 300
3 | CC1NCC(O)c2ccsc21 (centres unmarked) [Derivative 3, 4-hydroxy-7-methyl-4,5,6,7-tetrahydro-thieno[2,3-c]pyridine] | 68 | 62 | 58 | 50 | 300 | 55 | 38 | 47 | 56 | 45 | 56 | 
4 | CC1NCC(O)c2sccc21 (centres unmarked) [Derivative 5, 7-hydroxy-4-methyl-4,5,6,7-tetrahydro-thieno[3,2-c]pyridine] | 76 | 64 | 61 | 52 | 155 | 59 | 41 | 55 | 60 | 52 | 64 | 
5 | CCC1NCC(O)c2sccc21 (centres unmarked) [Derivative 6, 4-ethyl-7-hydroxy-4,5,6,7-tetrahydro-thieno[3,2-c]pyridine] | 71 | 67 | 63 | 58 | 210 | 58 | 39 | 51 | 57 | 49 | 64 | 
6 | OC1CNCc2sccc21 (centres unmarked) [Derivative 2, 4-hydroxy-4,5,6,7-tetrahydro-thieno[2,3-c]pyridine] | 76 | 69 | 60 | 54 | 68 | 66 | 43 | 54 | 58 | 56 | 65 | > 300
